Measurements from article PMC8245078, “Development of novel benzofuran-isatin conjugates as potential antiproliferative agents with apoptosis inducing mechanism in Colon cancer” (Journal of Enzyme Inhibition and Medicinal Chemistry, 2021).
Like-named read-outs stand apart in the source and are kept apart here.

Columns and labels:
[1] = tested on: HT-29 colorectal cancer cell line; experiment: MTT cell viability assay; assay type: cell-based, human; conditions: for inhibition of HT-29 cancer cells viability: 10 µM, 24 h, MTT
Experimental: (§1) In the present investigation a new set of benzofuran–isatin hybrids (5a–e and 7a–i) was synthesised to be evaluated for their potential anticancer activity towards two human colorectal cancer cell lines, SW-620 and HT-29. […] Both, SW-620 and HT-29 cells were treated with 10 µM of each compound for 24 h and the percent cell viability was calculated using MTT assay.
(§2) For this reason, compounds 5a and 5d were pursued for further studies. Starting with determination of IC50s and cytotoxic selectivity studies. Serial concentrations of compounds 5a and 5d were used to examine their impact on cell viability using MTT protocol. Results of concentration vs percent viability were charted, and the IC50 was calculated for SW-620 and HT-29 cell lines using Graph Pad prism 8 (Figure 4). […]
(§3) [(Ti-Tz)/Tz] x 100 for concentrations for which Ti<Tz […]
(§4) SW620 and HT29 colorectal cancer cell lines and HFF-1 fibroblast (ATCC, Rockville, USA) were used. HT29 cells were cultured and maintained in Dulbecco’s Modified Eagles Medium (DMEM) (GIBCO, by Thermo Fischer Scientific, NY, USA) supplemented with 10% fetal bovine serum (FBS), 100 units/mL penicillin, and 100 μg streptomycin. SW620 and HFF-1 cells were cultured in Roswell Park Memorial Institute medium (RPMI-1640) (GIBCO, by Thermo scientific, NY, USA) supplemented with 10% FBS and 1% penicillin and streptomycin (Napolitano et al., 2015). All cultures were incubated at 37 °C and humidified atmosphere of 5% […]
(§5) 2.3. Cell Viability Assay
(§6) The cytotoxicity effect of compounds on the colorectal cancer cell lines, SW620 and HT29 in addition to the normal human fibroblasts was measured by MTT (3-(4, 5-dimethylthiazol-2-yl)-2,5-diphenyltetrazolium bromide) (Sigma-Aldrich, St. Louis, MO, USA) as previously described. Briefly, cells were seeded in 96 well culture plates at 5000/well for HT29 and 10,000/well for SW620 for 24 h. Cells were then incubated with different compounds from WAG1 series (1-15) 24h at 37 °C and humidified 5% CO2 incubator. Freshly prepared 10 μl of 3-(4,5-dimethylthiazol-2-yl)-2,5-diphenyltetrazolium bromide (MTT 5 mM) solution were added to the cells and further incubated for 2 h. Thereafter, 100 μl of dimethyl sulfoxide (DMSO) were added in each well and the crystals were dissolved through careful pipetting. […]
VA, USA). The experiments were performed in triplicate for each condition. […]
(§7) The total protein concentration was evaluated by the colorimetric
(§8) Bradford protein assay (BIO-RAD inc, CA, USA) at 595 nm absorbance. Lysates were loaded in […]

[2] = tested on: cleaved PARP in SW-620 cells; experiment: Western blot analysis of cleaved PARP; assay type: cell-based, human; conditions: SW-620, 5 μM and 10 μM, 24 h
Text: To further examine the possible mechanism of apoptosis, the effect of compounds 5a and 5d on certain apoptosis-related proteins was studied. Bcl2 protein as a critical component of the mitochondrial apoptotic pathway is reported to be overexpressed in numerous tumours causing survival of cancer cell[62]. In addition, it was reported that caspase activation during apoptosis leads to proteolytic cleavage of several cellular substrates participating in DNA reparation including [poly (ADP-ribose) polymerase][63]. Therefore, the impact of compounds 5a and 5d on the anti-apoptotic protein Bcl2 and the level of cleaved PARP was examined (Figure 7). […]
2.5. Western Blot Analysis
All cells were seeded in a 100 mm dish (1 × 10^6 cells per dish) in 5% CO2 at 37 °C in the appropriate culture medium. The cells with around 50% confluency were treated with compounds for 24h. At the experiment day, cells were washed with 1x PBS, harvested and lysed in RIPA lysis buffer, combined with protease inhibitors, (Sigma-Aldrich, St. Louis, MO, USA) as described previously (39)). The total protein concentration was evaluated by the colorimetric Bradford protein assay (BIO-RAD inc, CA, USA) at 595 nm absorbance. Lysates were loaded in […]
equal concentration and separated by sodium dodecyl sulfate-polyacrylamide gel electrophoresis (SDS-PAGE) and then transferred to a nitrocellulose membrane by semi-dry. […]

[3] = tested on: SW-620 colorectal cancer cell line; experiment: MTT cell viability assay; assay type: cell-based, human; conditions: for inhibition of SW-620 cancer cells viability: 10 µM, 24 h, MTT
Experimental: as §1, §2, §3, §4, §5
as §6, with “pipetting. In certain experiment, cells were treated different concentration of 5FU for 72 h. The absorbance of the product was measured at 540 nm using a Synergy™ 2 multi-mode microplate reader (Biotech, VA, USA). The experiments were performed in triplicate for each condition.” for “pipetting.”
as §7, §8

RPMI-8226 = experiment: NCI single dose screening (10 µM); assay type: cell-based; conditions: Homo sapiens
[4] = Homo sapiens, HT-29, HT-29, MTT
[5] = Homo sapiens, SW-620, SW-620, MTT
[6] = RPMI-8226, Leukaemia, single dose 10^−5 M, read-out: GI% (cell growth inhibition percentage)

SMILES	inhibition of HT-29 cancer cells viability [1]	IC50 ([1]; HT-29, MTT)	IC50 [1, 4]	level of cleaved PARP (Western blot, in words) [2]	inhibition of SW-620 cancer cells viability [3]	IC50 [3, 5]	IC50 ([3]; SW-620, MTT)	inhibition at 10 µM (RPMI-8226; [6])	further results
Cc1c(C(=O)N/N=C2\C(=O)Nc3ccccc32)oc2ccccc12 [Compound 5a]	> 50%	8.7 µM	9.4 µM	significant increase	46%	8.7 µM	9.4 µM	–	–
Cc1c(C(=O)N/N=C2\C(=O)N(Cc3ccccc3)c3ccccc32)oc2ccccc12 [Compound 7d]	–	–	–	–	–	–	–	–	inhibition at 10 µM (RPMI-8226; RPMI-8226, read-out: GI% (cell growth inhibition percentage)): < 10%
CCCN1C(=O)/C(=N\NC(=O)c2oc3ccccc3c2C)c2ccccc21 [Compound 7b]	> 50%	–	–	–	–	–	–	–	–
Cc1c(C(=O)N/N=C2\C(=O)Nc3ccc(F)cc32)oc2ccccc12 [Compound 5b]	–	–	–	–	–	–	–	< 10%	–
Cc1c(C(=O)N/N=C2\C(=O)Nc3ccc(Br)cc32)oc2ccccc12 [Compound 5c]	–	–	–	–	–	–	–	< 10%	–
COc1ccc2c(c1)/C(=N/NC(=O)c1oc3ccccc3c1C)C(=O)N2 [Compound 5d]	> 50%	6.5 µM	9.8 µM	significant increase	about 52%	6.5 µM	9.8 µM	–	–
